Reference: patent publication US6737383B1, “Herbicidal oxadiazolidines” (priority 1999, dated 2004)

Experiments:
crabgrass = assay: Test B pre/postemergence crabgrass; format: in vivo, Digitaria sanguinalis
Summary of the method: (§1)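 Herbicidal effect was estimated by eye on a ten-point control scale after plants spent twelve to sixteen days in a greenhouse following soil or foliar treatment. Foliar sprays targeted plants at one to four leaves; all doses were formulated in a non-phytotoxic solvent with surfactant.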

soybean = assay: Test B pre/postemergence soybean; format: in vivo, Glycine max
Summary of the method: as §1

wheat = assay: Test B pre/postemergence wheat; format: in vivo, Triticum aestivum
Summary of the method: as §1

wild oat [1] = assay: Test B pre/postemergence wild oat; format: in vivo, Avena fatua
Summary of the method: as §1

smallflower flatsedge = assay: Test B flood test smallflower flatsedge; format: in vivo, Cyperus difformis
Summary of the method: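 Plants were grown to the 2-leaf stage before treatment with test chemical, then held in a greenhouse for twelve to sixteen days. Injury was visually rated against untreated controls on a 0–10 scale, where 0 is no effect and 10 is complete control.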

bermuda-grass = assay: Test D bermudagrass; format: in vivo, Cynodon dactylon; settings: Preemergence, 0 to 100 scale
Summary of the method: (§2)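 Values are visual plant-response ratings (0 no injury, 100 complete control) recorded 14 to 21 days after herbicide treatment, using a non-phytotoxic solvent mixture containing surfactant. Preemergence applications went to the surface of pots holding freshly sown seed in sandy loam.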

itchgrass = assay: Test D itchgrass; format: in vivo, Rottboellia exaltata; settings: Preemergence, 0 to 100 scale
Summary of the method: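 Scoring used a 0–100 visual injury scale, with 0 meaning no effect and 100 complete control, assessed 14–21 days after application alongside untreated pots. Preemergence treatments went onto sandy loam surfaces of separately potted seeds within a day of sowing.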

Johnson grass = assay: Test D Johnson grass; format: in vivo, Sorghum halepense; settings: Preemergence, 0 to 100 scale
Summary of the method: as §2

winter wheat [2] = assay: Test E winter wheat; format: in vivo, Triticum aestivum; settings: Postemergence, 0 to 100 scale
Summary of the method: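 Visually scored herbicidal effect relative to untreated plants, taken ~21 to 28 days post-application; compound in solvent with surfactant; postemergence sprays at the 1- to 4-leaf stage.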

blackgrass = assay: Test E blackgrass; format: in vivo, Alopecurus myosuroides; settings: Preemergence
green foxtail = assay: Test E green foxtail; format: in vivo, Setaria viridis; settings: Preemergence
Italian ryegrass = assay: Test E Italian ryegrass; format: in vivo, Lolium multiflorum; settings: Preemergence
winter wheat [3] = assay: Test E winter wheat; format: in vivo, Triticum aestivum; settings: Preemergence
wild oat [4] = assay: Test E wild oat; format: in vivo, Avena fatua; settings: Preemergence
winter barley = assay: Test E winter barley; format: in vivo, Hordeum vulgare; settings: Preemergence
[5] = Postemergence, Rate 125 g/ha, scale of 0 to 10 where 0 is no effect and 10 is complete control
[6] = Preemergence, Rate 62 g/ha, scale 0 to 10 (0 no effect, 10 complete control)
[7] = Preemergence, Rate 125 g/ha, 0 is no effect, 10 is complete control
[8] = Preemergence, Rate 250 g/ha, scale 0 to 10, 0 is no effect, 10 is complete control
[9] = Preemergence, Rate 500 g/ha, scale 0 to 10 (0 no effect, 10 complete control)
[10] = Rate 62 g/ha, Postemergence, scale of 0 to 10 where 0 is no effect and 10 is complete control
[11] = Rate 250 g/ha, Postemergence, scale 0 to 10, 0 is no effect, 10 is complete control
[12] = Rate 500 g/ha, Postemergence, scale 0 to 10
[13] = Rate 16 g/ha, 0 no injury, 100 complete control
[14] = Rate 32 g/ha, 0 no injury, 100 complete control
[15] = Rate 64 g/ha, 0 no injury, 100 complete control
[16] = Rate 125 g/ha, 0 no injury, 100 complete control
[17] = Rate 31 g/ha, 0 to 100 scale, 0 no effect, 100 complete control
[18] = Rate 62 g/ha, 0 to 100 scale, 0 no effect, 100 complete control
[19] = Rate 125 g/ha, 0 to 100 scale (0 no effect, 100 complete control)

## C=CCn1c(=O)on(C(=O)N(c2ccc(F)cc2F)C(C)C)c1=O [Compound 151]
crabgrass; [5]
  Crabgrass plant response rating: 9
crabgrass; [6]
  Crabgrass plant response rating: 10
crabgrass; [7]
  Crabgrass plant response rating (0 to 10 scale): 10
crabgrass; [8]
  Crabgrass plant response rating: 10
crabgrass; [9]
  Crabgrass plant response rating: 10
crabgrass; [10]
  Crabgrass plant response rating: 8
crabgrass; [11]
  Plant response rating, Crabgrass: 9
crabgrass; [12]
  Crabgrass plant response rating: 9
soybean; [5]
  Soybean plant response rating: 4
soybean; [6]
  Soybean plant response rating: 0
soybean; [7]
  Soybean plant response rating (0 to 10 scale): 0
soybean; [8]
  Soybean plant response rating: 3
soybean; [9]
  Soybean plant response rating: 7
soybean; [10]
  Soybean plant response rating: 3
soybean; [11]
  Plant response rating, Soybean: 4
soybean; [12]
  Soybean plant response rating: 4
wheat; [6]
  Wheat plant response rating: 2
wheat; [7]
  Wheat plant response rating (0 to 10 scale): 2
wheat; [8]
  Wheat plant response rating: 4
wheat; [9]
  Wheat plant response rating: 5
wheat; [10]
  Wheat plant response rating: 0
wheat; [11]
  Plant response rating, Wheat: 4
wheat; [12]
  Wheat plant response rating: 8
Wild oat [1]; [6]
  Wild oats plant response rating: 8
Wild oat [1]; [7]
  Wild oats plant response rating (0 to 10 scale): 9
Wild oat [1]; [8]
  Wild oats plant response rating: 10
Wild oat [1]; [9]
  Wild oats plant response rating: 10
Wild oat [1]; [11]
  Plant response rating, Wild oats: 6
Wild oat [1]; [12]
  Wild oats plant response rating: 8
Smallflower flatsedge; Postemergence (flood test species), Rate 125 g/ha, scale of 0 to 10 where 0 is no effect and 10 is complete control
  S. Flatsedge plant response rating: 0
Smallflower flatsedge; Rate 62 g/ha, Postemergence section, flood test species, scale of 0 to 10 where 0 is no effect and 10 is complete control
  S. Flatsedge plant response rating: 0
Smallflower flatsedge; Rate 250 g/ha, Postemergence (flood test), scale 0 to 10, 0 is no effect, 10 is complete control
  Plant response rating, S. Flatsedge: 0
Smallflower flatsedge; Rate 500 g/ha, listed under Postemergence (flood test species), scale 0 to 10
  S. Flatsedge plant response rating: 8
bermuda-grass; [13]
  Plant response rating, Bermudagrass: 90
bermuda-grass; [14]
  Plant response rating, Bermudagrass: 90
bermuda-grass; [15]
  Plant response rating, Bermudagrass: 90
bermuda-grass; [16]
  Plant response rating, Bermudagrass: 100
bermuda-grass; Rate 250 g/ha
  Plant response rating, Bermudagrass: 100
bermuda-grass; Rate 500 g/ha
  Plant response rating, Bermudagrass: 100
itchgrass; [13]
  Plant response rating, Itchgrass: 0
itchgrass; [14]
  Plant response rating, Itchgrass: 0
itchgrass; [15]
  Plant response rating, Itchgrass: 75
itchgrass; [16]
  Plant response rating, Itchgrass: 85
itchgrass; Rate 250 g/ha
  Plant response rating, Itchgrass: 100
itchgrass; Rate 500 g/ha
  Plant response rating, Itchgrass: 100
Johnson grass; [13]
  Plant response rating Johnsongrass: 0
Johnson grass; [14]
  Plant response rating Johnsongrass: 0
Johnson grass; [15]
  Plant response rating Johnsongrass: 40
Johnson grass; [16]
  Plant response rating Johnsongrass: 50
Johnson grass; Rate 250 g/ha
  Plant response rating Johnsongrass: 50
Johnson grass; Rate 500 g/ha
  Plant response rating Johnsongrass: 100
Winter wheat [2]; Rate 31 g/ha, 0 no effect, 100 complete control
  Plant response rating, Wheat (winter): 10
Winter wheat [2]; Rate 62 g/ha
  Plant response rating, Wheat (winter): 10
Winter wheat [2]; Rate 125 g/ha
  Plant response rating, Wheat (winter): 70
blackgrass; [17]
  Plant response rating, Blackgrass: 30
blackgrass; [18]
  Plant response rating, Blackgrass: 45
blackgrass; [19]
  Plant response rating, Blackgrass: 75
Green foxtail; [17]
  Plant response rating, Green foxtail: 20
Green foxtail; [18]
  Plant response rating, Green foxtail: 30
Green foxtail; [19]
  Plant response rating, Green foxtail: 80
Italian ryegrass; [17]
  Plant response rating, I. Ryegrass: 20
Italian ryegrass; [18]
  Plant response rating, I. Ryegrass: 30
Italian ryegrass; [19]
  Plant response rating, I. Ryegrass: 50
Winter wheat [3]; [17]
  Plant response rating, Wheat (winter): 0
Winter wheat [3]; [18]
  Plant response rating, Wheat (winter): 0
Winter wheat [3]; [19]
  Plant response rating, Wheat (winter): 10
Wild oat [4]; [17]
  Plant response rating, Wild oat: 10
Wild oat [4]; [18]
  Plant response rating, Wild oat: 10
Wild oat [4]; [19]
  Plant response rating, Wild oat: 20
Winter barley; [17]
  Plant response rating, Barley (winter): 10
Winter barley; [18]
  Plant response rating, Barley (winter): 10
Winter barley; [19]
  Plant response rating, Barley (winter): 20
